Measurements published in the NIST ThermoML archive (doi:10.1016/j.tca.2013.10.024).
“And” between values parts separate entries of the source, which are not always exact repeats. Equal values may be shown once.

Details: Crystal, Calculated from knudsen effusion weight loss

O=S(=O)([O-])[O-].[K+].[K+] [potassium sulfate]
Details	vapor or sublimation pressure
1193 K	2.255e-05 kPa
1201 K	4.069e-05 kPa
1202 K	3.268e-05 kPa
1207 K	5.831e-05 kPa
1212 K	4.467e-05 kPa
1214 K	4.592e-05 kPa and 5.841e-05 kPa
1218 K	4.274e-05 kPa
1221 K	7.584e-05 kPa
1223 K	9.497e-05 kPa
1224 K	6.12e-05 kPa
1225 K	5.984e-05 kPa
1226 K	7.236e-05 kPa
1227 K	0.0001197 kPa
1228 K	0.0001335 kPa and 9.75e-05 kPa
1233 K	6.173e-05 kPa
1235 K	6.966e-05 kPa and 0.0001125 kPa
1238 K	0.000154 kPa and 7.448e-05 kPa
1239 K	0.000181 kPa and 0.0001288 kPa
1240 K	9.576e-05 kPa
1241 K	0.0001668 kPa
1243 K	0.0002943 kPa and 0.0001001 kPa
1244 K	0.000186 kPa [middle of 4 runs]
1245 K	0.0001671 kPa
1246 K	0.0001915 kPa and 0.0001729 kPa
1247 K	0.0002093 kPa
1248 K	0.0002174 kPa and 0.0001453 kPa
1253 K	0.0001091 kPa
1254 K	0.0001949 kPa
1255 K	0.0002829 kPa and 0.0001188 kPa
1258 K	0.000281 kPa and 0.0003264 kPa
1259 K	0.0001516 kPa and 0.0002187 kPa and 0.0003679 kPa
1260 K	0.0001623 kPa and 0.0004471 kPa
1263 K	0.0002656 kPa
1264 K	0.0005652 kPa and 0.0002789 kPa
1265 K	0.0003443 kPa and 0.0002937 kPa
1267 K	0.0005201 kPa and 0.0003602 kPa
1268 K	0.0003503 kPa [middle of 4 runs]
1269 K	0.0001536 kPa
1271 K	0.0003904 kPa
1272 K	0.0005138 kPa and 0.0005765 kPa and 0.0003016 kPa
1273 K	0.0001617 kPa and 0.0001919 kPa
1275 K	0.0006554 kPa
1276 K	0.0003422 kPa
1277 K	0.000463 kPa
1280 K	0.0004126 kPa
1281 K	0.0005285 kPa and 0.0002784 kPa
1282 K	0.000452 kPa
1283 K	0.0007481 kPa [middle of 5 runs]
1286 K	0.0004333 kPa
1288 K	0.0005671 kPa and 0.0005922 kPa and 0.0005203 kPa
1290 K	0.0009328 kPa and 0.0004622 kPa
1292 K	0.000853 kPa and 0.0003739 kPa and 0.0005323 kPa
1296 K	0.0006593 kPa and 0.0005992 kPa
1297 K	0.001092 kPa
1300 K	0.0007532 kPa [middle of 4 runs]
1301 K	0.0007786 kPa
1302 K	0.0004586 kPa and 0.0006547 kPa
1303 K	0.0003659 kPa
1304 K	0.0006238 kPa
1305 K	0.0008515 kPa [middle of 4 runs]
1306 K	0.001457 kPa
1308 K	0.0009057 kPa
1309 K	0.0005351 kPa and 0.000795 kPa
1311 K	0.001559 kPa
1313 K	0.001473 kPa
1314 K	0.001 kPa and 0.0008818 kPa
1315 K	0.0006036 kPa
1317 K	0.000929 kPa
1318 K	0.000916 kPa and 0.0006586 kPa
1320 K	0.001024 kPa
1325 K	0.001188 kPa and 0.001093 kPa
1326 K	0.0008296 kPa
1330 K	0.0008553 kPa and 0.001278 kPa
1332 K	0.001415 kPa
1334 K	0.00134 kPa
1335 K	0.001459 kPa
1336 K	0.001412 kPa
1341 K	0.001475 kPa
1343 K	0.001564 kPa
1347 K	0.001721 kPa
1349 K	0.001744 kPa
1352 K	0.001919 kPa
1355 K	0.001941 kPa
1359 K	0.002022 kPa
